In article PMC11443518, “Undescribed Amaryllidaceae Alkaloids from Zephyranthes citrina and Their Cytotoxicity” (Journal of Natural Products, 2024):

Key:
[1] = test system: MCF-7 (breast adenocarcinoma); assay: WST-1 cell proliferation assay, cytotoxicity screening; assay type: cell-based, human; details: Homo sapiens, MCF7, 48 h, read-out: growth percent (GP) MCF-7
Excerpt: (§1) Selected human tumor and nontumor cell lines Jurkat (acute T-cell leukemia), MOLT-4 (acute lymphoblastic leukemia), A549 (lung carcinoma), HT-29 (colorectal adenocarcinoma), PANC-1 (pancreas epithelioid carcinoma), A2780 (ovarian carcinoma), HeLa (cervix adenocarcinoma), MCF-7 (breast adenocarcinoma), SAOS-2 (osteosarcoma) and MRC-5 (nontumor lung fibroblasts) were purchased from European Collection of Authenticated Cell Cultures (ECACC, Salisbury, UK) and cultured according to the provider’s culture method guidelines. […] The cells in low passage number (nontumor primary cell line MRC-5 was used for a maximum of 10 passages and cancer cell lines were used for a maximum of 20 passages) and in an exponential growth phase were used for this study.
(§2) Each cell line was seeded at a previously established optimal density (1 × 10^3 to 50 × 10^3 cells per well) in a 96-well plate (TPP, Trasadingen, Switzerland) and cells were allowed to settle overnight. During screening tests for cytotoxicity, cells were treated with alkaloids at a final concentration of 10 μM for 48 h. Doxorubicin (Sigma-Aldrich, St. Louis, USA), at a concentration of 1 μM, was used as a positive control. At the end of the culture period, the WST-1 proliferation assay (Roche, Basel, Switzerland) was performed according to the manufacturer’s protocol. The absorbance was determined using a Tecan Spark microplate reader (Tecan, Männedorf, Switzerland). Each value is the mean of three independent experiments and represents the percentage of the proliferation of control, nontreated cells (100%). The growth percent (GP) value as the mean of the proliferation decrease was calculated for each cell line and derivative tested.

[2] = test system: MOLT-4 (acute lymphoblastic leukemia); assay: as above; assay type: cell-based, human; details: Homo sapiens, MOLT-4, 48 h, read-out: growth percent (GP) MOLT-4
Excerpt: as §1, §2

[3] = test system: MRC-5 (nontumor lung fibroblasts); assay: as above; assay type: cell-based; details: Homo sapiens, MRC5, 48 h, read-out: growth percent (GP) MRC-5
Excerpt: as §1, §2

[4] = test system: HeLa (cervix adenocarcinoma); assay: as above; assay type: cell-based; details: Homo sapiens, 48 h, read-out: growth percent (GP) HeLa
Excerpt: as §1, §2

[5] = test system: PANC-1 (pancreas epithelioid carcinoma); assay: as above; assay type: cell-based; details: Homo sapiens, PANC-1, 48 h, read-out: growth percent (GP) PANC-1
Excerpt: as §1, §2

[6] = test system: A2780 (ovarian carcinoma); assay: as above; assay type: cell-based; details: Homo sapiens, A2780, 48 h, read-out: growth percent (GP) A2780
Excerpt: as §1, §2

[7] = test system: Jurkat (acute T-cell leukemia); assay: as above; assay type: cell-based; details: Homo sapiens, 48 h, read-out: growth percent (GP) Jurkat
Excerpt: as §1, §2

A549 (lung carcinoma) = assay: as above; assay type: cell-based; details: Homo sapiens, A549, 48 h, read-out: growth percent (GP) A549
Excerpt: as §1, §2

SAOS-2 (osteosarcoma) = assay: as above; assay type: cell-based; details: Homo sapiens, SAOS-2, 48 h, read-out: growth percent (GP) SAOS-2
Excerpt: as §1, §2

[8] = test system: HT-29 (colorectal adenocarcinoma); assay: as above; assay type: cell-based; details: Homo sapiens, HT-29, 48 h, read-out: growth percent (GP) HT-29
Excerpt: as §1, §2

[9] = test system: nine human tumor and one nontumor cell lines; assay: Cytotoxicity screening across the whole panel of cell lines; assay type: cell-based; details: Homo sapiens, 48 h, read-out: GP value across the tested cell lines
Excerpt: Concerning the cytotoxicity of alkaloids isolated from Z. citrina, initially, Prakash and Vedanayaki investigated the MeOH extract of the bulbs for its in vitro cytotoxic activity using the MTT assay against three human cancer cell lines from different tissue origins: cervical cancer (HeLa), breast cancer (MCF-7), and oral squamous carcinoma (SCC-9). […] In this context, and to assess potential negative effects on human cell cultures, compounds 1, and 3–27 were screened in our study for cytotoxicity using a 10 μM single-dose regimen. The results were compared with those using the clinically approved antineoplastic agent doxorubicin at 1 μM. The effect on cell growth was investigated on nine human tumor and one nontumor cell lines, namely Jurkat (acute T-cell leukemia), MOLT-4 (acute lymphoblastic leukemia), A549 (lung carcinoma), HT-29 (colorectal adenocarcinoma), PANC-1 (pancreas epithelioid carcinoma), A2780 (ovarian carcinoma), HeLa (cervix adenocarcinoma), MCF-7 (breast adenocarcinoma), SAOS-2 (osteosarcoma) and MRC-5 (nontumor lung fibroblasts). […] No toxicity is valuable information, especially for compound 18, as it is a potent inhibitor of hAChE and hBChE.[27]
Selected human tumor and nontumor cell lines Jurkat (acute T-cell leukemia), MOLT-4 (acute lymphoblastic leukemia), A549 (lung carcinoma), HT-29 (colorectal adenocarcinoma), PANC-1 (pancreas epithelioid carcinoma), A2780 (ovarian carcinoma), HeLa (cervix adenocarcinoma), MCF-7 (breast adenocarcinoma), SAOS-2 (osteosarcoma) and MRC-5 (nontumor lung fibroblasts) were purchased from European Collection of Authenticated Cell Cultures (ECACC, Salisbury, UK) and cultured according to the provider’s culture method guidelines. All cell lines were maintained at 37 °C in a humidified 5% carbon dioxide and 95% air incubator. The cells in low passage number (nontumor primary cell line MRC-5 was used for a maximum of 10 passages and cancer cell lines were used for a maximum of 20 passages) and in an exponential growth phase were used for this study.
as §2

Compound	activity at 10 µM [1] [%]	activity at 10 µM [2] [%]	activity at 10 µM [3] [%]	activity at 10 µM [4] [%]	activity at 10 µM [5] [%]	activity at 10 µM [6] [%]	activity at 10 µM [7] [%]	activity at 10 µM (A549 (lung carcinoma)) [%]	activity at 10 µM (SAOS-2 (osteosarcoma)) [%]	activity at 10 µM [8] [%]	activity at 10 µM [9] [%]
COc1cc2c(cc1OC)[C@@]13CC[C@H](OC)C[C@@H]1N(CC3)C2O (stereo partly shown) [Compound 9, zephyranine E]	108	79	100	106	98	111	96	95	77	95	> 50
COc1cc2c(c(O)c1OC)[C@@]13CC[C@H](OC)C[C@@H]1N(CC3)C2O (stereo partly shown) [Compound 10, zephyranine F]	99	78	97	82	77	113	89	81	73	88	> 50
COc1cc2c(cc1OC)[C@@]13CC[C@@H](O)C[C@@H]1N(CC3)C2 [Compound 11]	104	95	104	98	100	107	99	88	97	97	> 50
CO[C@@H]1C=C[C@@]23c4cc5c(cc4CN(C[C@@H]2O)[C@H]3C1)OCO5 [Compound 12, haemanthamine]	17	6	32	16	37	38	18	33	34	5	–
CO[C@@H]1C=C[C@@]23c4cc5c(cc4[C@H](O)N(C[C@@H]2O)[C@H]3C1)OCO5 [Compound 13, haemanthidine]	24	11	–	25	38	52	23	38	35	7	–
